From ChEMBL document CHEMBL1148759, “Isolation, characterization, and biological evaluation of syn and anti diastereomers of [(99m)Tc]technetium depreotide: a somatostatin receptor binding tumor imaging agent” (J Med Chem, 2007)
Where a SMILES comes first, the peptide text is derived from it. [ ]: non-standard residue; d: D form. The star is where a group is joined. X1 = NCCCC[C@H](NC(=O)[C@H](CS)NC(=O)[C@H](CCCCN)NC(=O)[C@@H](N)CNC(=O)C*)C(N)=O; NMeF = CN[C@@H](Cc1ccccc1)C(=O)O; hCys = N[C@@H](CCS)C(=O)O

Experiment: Displacement of [125I]somatostatin from SSTR in rat AR42J cells
Format: cell-based
Details: ar-42j

IC50: 7.4 nM
Structure (SMILES): CC(C)[C@@H]1NC(=O)[C@H](CCCCN)NC(=O)[C@@H](Cc2c[nH]c3ccccc23)NC(=O)[C@H](Cc2ccc(O)cc2)NC(=O)[C@H](Cc2ccccc2)N(C)C(=O)[C@H](CCSCC(=O)NC[C@H](N)C(=O)N[C@@H](CCCCN)C(=O)N[C@@H](CS)C(=O)N[C@@H](CCCCN)C(N)=O)NC1=O [DEPREOTIDE] (cyclo([hCys](X1)[NMeF]Y[dW]KV))
